Source: ChEMBL document CHEMBL5230139, “Inhibitors of Eukaryotic Translational Machinery as Therapeutic Agents” (J Med Chem, 2021)
Numbered stars: 1 amine (or outer) side, 2 acyl side, 3 side chain; on linkers, the order of the positions; unused ones are H or OH. Bridge positions count the residues as written; N and C are the ends. Square brackets hold non-standard residues; d marks the D form. Peptide text beside a SMILES is read from it. X1 = CC[C@H](C)[C@@H](N[*:1])[C@@H](O)CC(=O)O[C@H](C(=O)[C@H](C)C(=O)[*:2])C(C)C; NMeY = CN[C@@H](Cc1ccc(O)cc1)C(=O)O; dNMeL = CN[C@H](CC(C)C)C(=O)O

How the values were obtained:
[1] = Cytotoxicity against mouse NIH/3T3 cells assessed as reduction in cell viability incubated for 4 days by SRB assay; format: toxicity, cell-based, NIH3T3
[2] = Inhibition of EIF1A in human Jurkat cells assessed as reduction in T-cell receptor-mediated IL-2 expression; format: cell-based
A549 [3] = experiment: Antiproliferative activity against human A549 cells assessed as cell growth inhibition incubated for 24 by 14C-thymidine incorporation assay; format: functional, cell-based
HCT-116 [4] = experiment: Antiproliferative activity against human HCT-116 cells assessed as cell growth inhibition incubated for 24 by 14C-thymidine incorporation assay; format: functional, cell-based
3T3-L1 = experiment: Cytotoxicity against mouse 3T3-L1 adipocyte assessed as inhibition of fat accumulation incubated for 30 mins; format: toxicity, cell-based; settings: 3T3-L1, 0.5 h
HCT-116 [5] = experiment: Antiproliferative activity against human HCT-116 cells assessed as cell growth inhibition; format: functional, cell-based
[6] = Inhibition of EIF1A (unknown origin); design: species or system Homo sapiens
L1210 = experiment: Anticancer activity against mouse L1210 cells allografted in mouse assessed as increase in survival rate; format: functional
[7] = (§1) In vivo activation of dystrophin in mouse H2K mdx cells assessed as increase in production of dystrophin protein; format: functional
A549 [8] = experiment: Antiproliferative activity against human A549 cells assessed as cell growth inhibition incubated for 3 days; format: functional, cell-based; settings: A549, 72 h
P388 [9] = experiment: Antiproliferative activity against mouse P388 cells assessed as cell growth inhibition incubated for 3 days; format: functional, cell-based; settings: P388, 72 h
P388 [10] = experiment: Inhibition of DNA synthesis in mouse P388 cells measured after 72 hrs; format: functional, cell-based; settings: P388, 72 h
SK-MEL-28 = experiment: Antiproliferative activity against human SK-MEL-28 cells assessed as cell growth inhibition incubated for 3 days; format: functional, cell-based; settings: SK-MEL-28, 72 h
HT-29 = experiment: Antiproliferative activity against human HT-29 cells assessed as cell growth inhibition incubated for 3 days; format: functional, cell-based; settings: HT-29, 72 h
P388 [11] = experiment: Inhibition of RNA synthesis in mouse P388 cells measured after 72 hrs; format: functional, cell-based
P388 [12] = experiment: Inhibition of protein synthesis in mouse P388 cells measured after 72 hrs; format: functional, cell-based; settings: P388, 72 h
HeLa [13] = experiment: Antiproliferative activity against human HeLa cells assessed as cell growth inhibition; format: functional, cell-based
[14] = Antiproliferative activity against mouse JB6 Cl 41-5a cells assessed as cell growth inhibition; format: functional, cell-based
SARS-CoV-2 [15] = experiment: Antiviral activity against SARS-CoV-2 infected in African green monkey Vero E6 cells assessed as inhibition of viral replication; format: functional, organism-based; settings: Severe acute respiratory syndrome coronavirus 2, Vero C1008
SARS-CoV-2 [16] = experiment: Antiviral activity against SARS CoV-2 clinical isolate 2019-nCoV infected with African green monkey Vero E6 cells by qRT-PCR analysis; format: functional, organism-based; settings: Severe acute respiratory syndrome coronavirus 2, 2019-nCoV, Vero C1008
HeLa [17] = experiment: Antiproliferative activity against human HeLa cells assessed as cell growth inhibition by [35S] methionine incorporation assay; format: functional, cell-based
NB-4 = experiment: Antiproliferative activity against human NB-4 cells assessed as cell growth inhibition incubated for 48 hrs by MTS assay; format: functional, cell-based; settings: NB-4, 48 h
OCI-AML2 = experiment: Antiproliferative activity against human OCI-AML2 cells assessed as cell growth inhibition incubated for 48 hrs by MTS assay; format: functional, cell-based; settings: OCI-AML2, 48 h
HL-60 = experiment: Antiproliferative activity against human HL-60 cells assessed as cell growth inhibition incubated for 48 hrs by MTS assay; format: functional, cell-based; settings: HL-60, 48 h
OCI-AML-3 = experiment: Antiproliferative activity against human OCI-AML-3 cells assessed as cell growth inhibition incubated for 48 hrs by MTS assay; format: functional, cell-based; settings: OCI-AML-3, 48 h
U-937 = experiment: Antiproliferative activity against human U-937 cells assessed as cell growth inhibition incubated for 48 hrs by MTS assay; format: functional, cell-based; settings: U-937, 48 h
[18] = tested on: Cystic fibrosis transmembrane conductance regulator (Homo sapiens), P13569 [UNDEFINED MUTATION]; experiment: In vivo activation of human […]-G542X mutant xenografted in mouse model assessed as induction of […] channel expression at 34 mg/kg administered daily; format: functional, organism-based
H2K mdx = experiment: as §1; format: functional

Sequence of Cystic fibrosis transmembrane conductance regulator (Homo sapiens), P13569 [UNDEFINED MUTATION] (P13569 whole entry, looked up): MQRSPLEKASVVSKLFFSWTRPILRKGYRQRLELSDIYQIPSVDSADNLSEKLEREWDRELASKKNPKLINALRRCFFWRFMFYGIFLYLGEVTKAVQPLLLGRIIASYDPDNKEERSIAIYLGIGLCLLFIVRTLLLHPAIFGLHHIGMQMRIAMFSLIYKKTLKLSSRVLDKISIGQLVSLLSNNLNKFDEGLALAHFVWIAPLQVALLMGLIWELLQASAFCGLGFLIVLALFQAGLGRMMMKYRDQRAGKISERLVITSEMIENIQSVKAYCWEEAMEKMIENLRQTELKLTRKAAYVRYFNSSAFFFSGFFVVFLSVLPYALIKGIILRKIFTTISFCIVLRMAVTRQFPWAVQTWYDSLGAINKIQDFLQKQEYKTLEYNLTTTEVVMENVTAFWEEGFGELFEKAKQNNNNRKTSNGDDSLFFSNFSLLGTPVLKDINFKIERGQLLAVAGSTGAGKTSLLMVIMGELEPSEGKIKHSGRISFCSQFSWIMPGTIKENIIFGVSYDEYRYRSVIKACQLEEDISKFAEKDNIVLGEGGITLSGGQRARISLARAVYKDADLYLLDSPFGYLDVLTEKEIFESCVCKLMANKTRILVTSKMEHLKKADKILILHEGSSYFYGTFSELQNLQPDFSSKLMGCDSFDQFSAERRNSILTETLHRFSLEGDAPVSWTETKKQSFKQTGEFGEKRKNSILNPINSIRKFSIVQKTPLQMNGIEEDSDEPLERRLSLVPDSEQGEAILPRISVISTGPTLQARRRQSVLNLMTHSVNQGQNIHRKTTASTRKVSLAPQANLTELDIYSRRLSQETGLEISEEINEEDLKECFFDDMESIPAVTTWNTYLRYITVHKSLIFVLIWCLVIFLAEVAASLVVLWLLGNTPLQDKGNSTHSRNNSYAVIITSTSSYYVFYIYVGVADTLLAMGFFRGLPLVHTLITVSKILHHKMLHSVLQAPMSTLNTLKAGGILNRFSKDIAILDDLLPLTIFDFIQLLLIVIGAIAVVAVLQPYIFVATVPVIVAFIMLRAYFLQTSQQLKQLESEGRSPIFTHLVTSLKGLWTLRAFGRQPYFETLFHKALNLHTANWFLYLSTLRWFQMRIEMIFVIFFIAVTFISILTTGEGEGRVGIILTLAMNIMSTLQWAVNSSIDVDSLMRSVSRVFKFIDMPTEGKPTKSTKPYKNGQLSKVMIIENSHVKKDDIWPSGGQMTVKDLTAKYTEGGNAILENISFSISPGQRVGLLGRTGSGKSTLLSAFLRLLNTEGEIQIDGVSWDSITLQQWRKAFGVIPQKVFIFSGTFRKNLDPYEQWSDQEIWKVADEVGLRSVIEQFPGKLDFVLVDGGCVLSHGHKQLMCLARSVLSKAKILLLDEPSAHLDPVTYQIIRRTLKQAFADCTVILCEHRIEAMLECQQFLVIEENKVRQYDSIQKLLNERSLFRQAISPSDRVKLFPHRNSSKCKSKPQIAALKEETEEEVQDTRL

## CONC(=O)[C@H]1[C@@H](O)[C@@]2(O)c3c(OC)cc(OC)cc3O[C@@]2(c2ccc(OC)cc2)[C@@H]1c1ccccc1
[1]
  IC50 at 4 days: 0.009 µM

## C/C1=C/C=C\C(=O)O[C@H](/C=C(C)/C=C/C=C/CN(C)C)Cc2csc(n2)CCCCC(=O)O[C@H](C)C1
[2]
  IC50: 0.0008 µM

## COc1ccc([C@@]23Oc4cc(OC)cc(OC)c4[C@@]24NC(C)=N[C@@]4(O)[C@H](C(=O)N(C)OC)[C@H]3c2ccccc2)cc1
[1]
  IC50 at 4 days: 0.002 µM

## COc1cc(C[C@H]2NC(=O)[C@H](C(C)C)N(C)C(=O)/C=C\C[C@@H](OC)/C(C)=C/C=C/[C@@H](C)[C@@H](c3ccccc3)OC(=O)[C@H](C(C)C)NC2=O)ccc1O
A549 [3]
  IC50: 0.02 µM
HCT-116 [4]
  IC50: 0.049 µM

## CC[C@H](C)[C@H]1NC(=O)[C@@H]([C@H](O)C(C)C)NC(=O)[C@@H](C)N(C)C(=O)[C@H](C)N(C)C(=O)[C@H](CC(C)C)NC(=O)[C@H](CC(C)C)N(C)C(=O)[C@H](C)N(C)C1=O
3T3-L1
  EC50: 0.02 µM
HCT-116 [5]
  IC50: 0.071 µM

## CC[C@H](C)[C@H]1NC(=O)[C@@H](NC(=O)[C@@H](CC(C)C)N(C)C(=O)[C@@H]2CCCN2C(C)=O)[C@@H](C)OC(=O)[C@H](Cc2ccc(OC)cc2)N(C)C(=O)[C@@H]2CCCN2C(=O)[C@H](CC(C)C)NC(=O)[C@@H](C)C(=O)[C@H](C(C)C)OC(=O)C[C@@H]1O (Ac-P[dNMeL]T[X1]LP[NMeY](Me); ester 3-C)
[6]
  IC50: 0.1 µM

## CN1C(=O)N[C@H]2[C@@H]3NC(=O)c4ccc(Br)n4[C@@H]3C[C@]21O [AGELASTATIN A]
L1210
  Survival: 63%

## O=C(O)c1cccc(-c2noc(-c3ccccc3F)n2)c1 [ATALUREN]
[7]
  Activity: 20%

## CC[C@H](C)[C@H]1NC(=O)[C@@H](NC(=O)[C@@H](CC(C)C)NC)[C@@H](C)OC(=O)[C@H](Cc2ccc(OC)cc2)N(C)C(=O)[C@@H]2CCCN2C(=O)[C@H](CC(C)C)NC(=O)[C@@H](C)C(=O)[C@H](C(C)C)OC(=O)C[C@@H]1O [DIDEMNIN A] (H-[dNMeL]T[X1]LP[NMeY](Me); ester 2-C)
A549 [8]
  IC50: 0.012 µM
P388 [9]
  IC50: 0.01 µM
P388 [10]
  IC50: 1 µM
SK-MEL-28
  IC50: 0.02 µM
HT-29
  IC50: 0.02 µM
P388 [11]; p388
  IC50: Not Active
[6]
  IC50: 0.4 µM
P388 [12]
  IC50: 0.4 µM

## C=C1C[C@](OC)([C@H](O)C(=O)N[C@H]2OCO[C@H]3[C@@H]2O[C@H](C[C@H](O)CO)C(C)(C)[C@@H]3OC)O[C@H](C)[C@@H]1C [MYCALAMIDE A]
HeLa [13]
  IC50: 0.005 µM
[14]
  IC50: 0.001 µM

## COC(=O)C[C@](O)(CCCC(C)(C)O)C(=O)O[C@@H]1C(OC)=C[C@]23CCCN2CCc2cc4c(cc2[C@H]13)OCO4 [OMACETAXINE MEPESUCCINATE]
SARS-CoV-2 [15]
  EC50: 0.06 µM

## CC[C@H](C)[C@H]1NC(=O)[C@@H](NC(=O)[C@@H](CC(C)C)N(C)C(=O)[C@@H]2CCCN2C(=O)C(C)=O)[C@@H](C)OC(=O)[C@H](Cc2ccc(OC)cc2)N(C)C(=O)[C@@H]2CCCN2C(=O)[C@H](CC(C)C)NC(=O)[C@@H](C)C(=O)[C@H](C(C)C)OC(=O)C[C@@H]1O [PLITIDEPSIN]
A549 [8]
  IC50: 0.0002 µM
P388 [9]
  IC50: 0.0002 µM
P388 [10]
  IC50: 0.1 µM
SK-MEL-28
  IC50: 0.0005 µM
HT-29
  IC50: 0.0005 µM
P388 [11]; Mus musculus, P388, 72 h, read-out: IC50
  IC50: > 1 µM
[6]
  IC50: 0.5 µM
P388 [12]
  IC50: 0.5 µM

## NC(=O)c1ncn([C@@H]2O[C@H](CO)[C@@H](O)[C@H]2O)n1 [RIBAVIRIN]
SARS-CoV-2 [16]
  EC50: 110 µM

## COc1ccc([C@@]23Oc4cc(OC)cc(OC)c4[C@]2(O)[C@H](O)[C@H](C(=O)N(C)C)[C@H]3c2ccccc2)cc1 [ROCAGLAMIDE]
HeLa [17]
  IC50: 0.1 µM

## COC(=O)[C@H]1[C@@H](O)[C@@]2(O)c3c(OC)cc(O[C@@H]4O[C@@H]([C@H](O)CO)CO[C@H]4OC)cc3O[C@@]2(c2ccc(OC)cc2)[C@@H]1c1ccccc1 [SILVESTROL]
NB-4
  IC50: 0.004 µM
OCI-AML2
  IC50: 0.004 µM
HL-60
  IC50: 0.004 µM
OCI-AML-3
  IC50: 0.004 µM
HeLa [17]
  IC50: 0.02 µM
U-937
  IC50: 0.004 µM

## GENTAMICIN
[18]
  Activity: 10%
H2K mdx
  Activity: 10%
